Assay results taken from patent publication US20170166598A1, “HETEROARYL COMPOUNDS FOR KINASE INHIBITION” (ARIAD PHARMACEUTICALS, INC., priority 2014, published 2017).
pIC50: −log10 of the molar value.

Experiments:
Type in all cases: cell-based
[1] = molecular target: T1, human EGFR exon 20 insertion NPG (H773_V774insNPG) (Homo sapiens, UniProt P00533, INS772GNP); assay: Ba/F3-EGFR-Exon20-NPG cell anti-proliferative assay (CellTiter 96 MTS, 72 h); settings: Ba/F3-EGFR-Exon20-NPG cells
T1 construct: expressed in transfected cells; host or cells: Ba/F3 (murine pro-B) cells transduced with lentivirus from pLVX-IRES puro
T1 sequence (P00533 with tags, fused parts or gaps INS772GNP): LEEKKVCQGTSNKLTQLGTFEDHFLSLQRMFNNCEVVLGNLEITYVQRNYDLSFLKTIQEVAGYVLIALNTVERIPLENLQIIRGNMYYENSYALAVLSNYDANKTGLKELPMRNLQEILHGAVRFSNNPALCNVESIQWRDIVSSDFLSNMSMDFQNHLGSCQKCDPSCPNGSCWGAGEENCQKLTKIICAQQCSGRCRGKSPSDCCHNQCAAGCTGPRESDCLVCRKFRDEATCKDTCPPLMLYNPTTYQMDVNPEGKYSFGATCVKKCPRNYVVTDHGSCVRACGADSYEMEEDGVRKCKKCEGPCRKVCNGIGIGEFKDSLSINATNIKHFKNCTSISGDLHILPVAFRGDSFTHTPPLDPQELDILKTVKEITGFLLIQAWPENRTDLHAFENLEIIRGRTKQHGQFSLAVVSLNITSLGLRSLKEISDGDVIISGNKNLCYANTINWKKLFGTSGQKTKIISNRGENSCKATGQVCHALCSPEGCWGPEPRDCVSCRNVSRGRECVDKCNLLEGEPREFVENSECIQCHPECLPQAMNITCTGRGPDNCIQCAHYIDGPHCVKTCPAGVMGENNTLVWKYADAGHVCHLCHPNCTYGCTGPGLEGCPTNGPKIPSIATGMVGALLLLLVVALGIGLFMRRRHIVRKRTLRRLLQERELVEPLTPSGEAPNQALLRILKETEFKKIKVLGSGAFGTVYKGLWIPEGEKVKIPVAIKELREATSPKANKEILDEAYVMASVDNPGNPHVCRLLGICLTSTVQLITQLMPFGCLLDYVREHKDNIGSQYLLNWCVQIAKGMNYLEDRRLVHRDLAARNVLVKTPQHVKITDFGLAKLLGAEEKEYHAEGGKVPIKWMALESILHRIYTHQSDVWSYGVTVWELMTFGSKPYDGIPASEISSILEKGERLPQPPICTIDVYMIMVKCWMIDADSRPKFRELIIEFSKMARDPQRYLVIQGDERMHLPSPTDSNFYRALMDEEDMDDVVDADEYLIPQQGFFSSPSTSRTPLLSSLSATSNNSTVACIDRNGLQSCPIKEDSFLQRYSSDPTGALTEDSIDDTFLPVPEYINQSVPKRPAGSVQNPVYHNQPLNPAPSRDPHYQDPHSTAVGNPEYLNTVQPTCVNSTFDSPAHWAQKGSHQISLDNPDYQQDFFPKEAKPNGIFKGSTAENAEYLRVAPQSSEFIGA
Description: An expression vector, pLVX-IRES puro (Clontech) coding for human EGFR exon 20 insertions NPG (H773_V774insNPG) or ASV (V769_D770insASV), was transfected into HEK293 cells by the Trans-Lentiviral ORF Packaging System (Thermo Scientific), to produce virus encoding EGFR exon 20 insertions. Ba/F3 (DSMZ) cells maintained in RPMI 1640 medium supplemented with 10% fetal bovine serum, 200 μM L-glutamine/l 200 μg/mL penicillin/200 μg/mL streptomycin (Life Technology) and 10 ng/mL IL-3 (R&D system), were infected by EGFR Exon20 virus and subsequently selected by puromycin (Life Technology) selection and IL-3 depletion. […] The anti-proliferative activity of compounds were determined as follows: BaF3-EGFR-Exon20 cells (NPG or ASV) seeded in 96 well plates (2500 cells/well) were treated with test compound (dissolved in DMSO) at a series of concentrations (4-fold dilution, top concentration: 10,000 nM). The plates were incubated for 72 h in a 37° C. incubator with 5% CO2, and the number of viable cells in each well were measured indirectly by CellTiter 96® Aqueous One Solution Cell Proliferation Assay (Promega) This assay is a colorimetric method for determining the number of viable cells through measurement of their metabolic activity by detection of enzymatic conversion of tetrazolium salts into blue formazan derivatives. Reagent (20 μL) was added into each well, and the plates were returned to the incubator for 2 h. The absorbance in each well was then measured at 490 nm using an Envision plate reader (Perkin Elmer).

[2] = molecular target: T2, human EGFR E746-A750 deletion and T790M Mutation (Homo sapiens, UniProt P00533, DEL746-750/T790M); assay: Ba/F3-EGFR-Del/T790M cell anti-proliferative assay (CellTiter 96 MTS, 72 h); settings: Ba/F3-EGFR-Del/T790M cells
T2 construct: expressed in transfected cells; host or cells: Ba/F3 (murine pro-B) cells transduced with lentivirus from pLVX-IRES puro
T2 sequence (P00533 with tags, fused parts or gaps DEL746-750/T790M): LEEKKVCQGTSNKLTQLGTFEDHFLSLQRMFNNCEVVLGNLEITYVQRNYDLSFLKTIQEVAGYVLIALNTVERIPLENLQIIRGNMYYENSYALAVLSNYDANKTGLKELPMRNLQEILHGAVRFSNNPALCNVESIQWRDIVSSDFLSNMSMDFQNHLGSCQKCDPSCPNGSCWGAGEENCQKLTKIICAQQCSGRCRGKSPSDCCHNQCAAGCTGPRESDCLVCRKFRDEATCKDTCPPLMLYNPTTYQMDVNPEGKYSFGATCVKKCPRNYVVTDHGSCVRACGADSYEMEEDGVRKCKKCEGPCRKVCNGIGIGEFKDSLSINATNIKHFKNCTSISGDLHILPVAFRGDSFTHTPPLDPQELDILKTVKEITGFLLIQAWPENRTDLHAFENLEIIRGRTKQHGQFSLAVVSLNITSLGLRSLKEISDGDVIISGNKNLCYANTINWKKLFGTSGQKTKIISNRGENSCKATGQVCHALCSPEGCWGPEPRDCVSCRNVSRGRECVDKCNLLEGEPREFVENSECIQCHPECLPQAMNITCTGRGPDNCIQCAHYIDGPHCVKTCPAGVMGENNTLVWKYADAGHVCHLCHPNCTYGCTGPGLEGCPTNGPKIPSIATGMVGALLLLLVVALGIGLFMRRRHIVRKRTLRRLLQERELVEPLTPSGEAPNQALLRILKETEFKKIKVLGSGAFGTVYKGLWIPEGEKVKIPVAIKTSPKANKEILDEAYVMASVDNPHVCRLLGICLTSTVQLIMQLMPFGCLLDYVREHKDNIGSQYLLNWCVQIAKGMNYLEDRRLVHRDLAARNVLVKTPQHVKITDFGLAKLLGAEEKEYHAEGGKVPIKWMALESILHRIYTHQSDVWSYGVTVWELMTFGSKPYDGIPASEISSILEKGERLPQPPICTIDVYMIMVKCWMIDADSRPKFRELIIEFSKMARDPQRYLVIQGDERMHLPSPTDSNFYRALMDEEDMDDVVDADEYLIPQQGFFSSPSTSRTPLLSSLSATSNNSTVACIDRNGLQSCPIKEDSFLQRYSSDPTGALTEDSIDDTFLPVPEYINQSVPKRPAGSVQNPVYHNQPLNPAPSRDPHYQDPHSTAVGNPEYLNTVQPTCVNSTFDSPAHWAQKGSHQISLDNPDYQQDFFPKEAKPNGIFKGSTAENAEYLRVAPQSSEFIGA
Description: An expression vector, pLVX-IRES puro (Clontech) coding for human EGFR E746-A750 deletion and T790M Mutation, was transfected into HEK293 cells by the Trans-Lentiviral ORF Packaging System (Thermo Scientific), to produce virus encoding EGFR exon 19 deletion and T790M mutations. Ba/F3 (DSMZ) cells maintained in RPMI 1640 medium supplemented with 10% fetal bovine serum, 200 μM L-glutamine/200 μg/mL penicillin/200 μg/mL streptomycin (Life Technology) and 10 ng/mL IL-3 (R&D system), were infected by EGFR E746-A750 deletion and T790M Mutation virus and subsequently selected by puromycin (Life Technology) selection and IL-3 depletion. […] The anti-proliferative activity of compounds was determined as follows: BaF3-EGFR-Del/T790M cells seeded in 96 well plates (2500 cells/well) were treated with test compound (dissolved in DMSO) at a series of concentrations (4-fold dilution, top concentration: 10,000 nM). The plates were incubated for 72 h in a 37° C. incubator with 5% CO2, and the number of viable cells in each well were measured indirectly by CellTiter 96® Aqueous One Solution Cell Proliferation Assay (Promega; this assay is a colorimetric method for determining the number of viable cells through measurement of their metabolic activity by detection of enzymatic conversion of tetrazolium salts into blue formazan derivatives). Reagent (20 μL) was added into each well, and the plates were returned to the incubator for 2 h. The absorbance in each well was then measured at 490 nm using an Envision plate reader (Perkin Elmer).

[3] = molecular target: T3, Her2 exon 20 YVMA insertion (A775_G776ins YVMA) (Homo sapiens, UniProt P04626, INS775YVMA); assay: Ba/F3-Her2 Exon20 YVMA cell anti-proliferative assay (CellTiter 96 MTS, 72 h); settings: Ba/F3-Her2 Exon20 YVMA cells
T3 construct: expressed in transfected cells; host or cells: Ba/F3 (murine pro-B) cells transduced with lentivirus from pLVX-IRES puro
T3 sequence (P04626 with tags, fused parts or gaps INS775YVMA): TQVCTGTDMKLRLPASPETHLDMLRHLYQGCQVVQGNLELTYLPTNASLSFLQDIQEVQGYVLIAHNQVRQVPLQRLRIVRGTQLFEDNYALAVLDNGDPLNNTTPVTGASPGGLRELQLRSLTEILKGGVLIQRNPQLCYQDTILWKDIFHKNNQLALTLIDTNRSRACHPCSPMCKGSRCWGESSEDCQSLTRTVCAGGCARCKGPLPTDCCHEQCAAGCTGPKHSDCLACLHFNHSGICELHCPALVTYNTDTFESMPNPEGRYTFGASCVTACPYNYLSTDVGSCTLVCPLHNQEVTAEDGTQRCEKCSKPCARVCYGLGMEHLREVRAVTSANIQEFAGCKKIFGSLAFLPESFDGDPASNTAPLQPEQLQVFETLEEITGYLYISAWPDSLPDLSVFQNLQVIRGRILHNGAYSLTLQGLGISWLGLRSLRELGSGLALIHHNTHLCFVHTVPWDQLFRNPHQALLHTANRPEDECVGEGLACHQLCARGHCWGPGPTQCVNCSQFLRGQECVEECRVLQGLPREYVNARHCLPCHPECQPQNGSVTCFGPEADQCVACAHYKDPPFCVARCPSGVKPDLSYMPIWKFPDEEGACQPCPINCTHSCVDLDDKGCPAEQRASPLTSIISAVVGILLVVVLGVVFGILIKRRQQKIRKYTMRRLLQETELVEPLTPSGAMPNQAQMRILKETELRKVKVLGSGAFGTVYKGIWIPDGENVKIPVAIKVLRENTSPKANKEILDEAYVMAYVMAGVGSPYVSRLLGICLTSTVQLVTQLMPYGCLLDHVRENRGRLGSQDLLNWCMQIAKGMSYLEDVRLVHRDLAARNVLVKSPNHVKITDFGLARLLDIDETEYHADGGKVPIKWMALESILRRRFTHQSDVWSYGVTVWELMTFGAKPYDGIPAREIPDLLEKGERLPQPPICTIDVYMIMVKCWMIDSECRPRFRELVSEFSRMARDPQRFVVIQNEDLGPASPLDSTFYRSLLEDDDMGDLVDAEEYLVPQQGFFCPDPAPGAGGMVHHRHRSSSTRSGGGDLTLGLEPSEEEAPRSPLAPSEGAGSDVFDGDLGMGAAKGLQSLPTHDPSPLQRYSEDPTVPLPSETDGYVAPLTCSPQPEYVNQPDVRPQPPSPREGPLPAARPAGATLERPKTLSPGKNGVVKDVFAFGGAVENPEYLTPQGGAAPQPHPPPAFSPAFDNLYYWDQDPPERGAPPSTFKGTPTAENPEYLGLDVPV
From the text: A compound's ability in selectively inhibiting Her2 exon 20 YVMA insertion mutations can be assessed using Ba/F3 cells, a murine pro-B cell line, which have been transduced with Her2 Exon20 YVMA insertions. An expression vector, pLVX-IRES puro (Clontech) coding for […] (A775_G776ins YVMA), was transfected into HEK293 cells by the Trans-Lentiviral ORF Packaging System (Thermo Scientific), to produce virus encoding EGFR exon 20 insertions. Ba/F3 (DSMZ) cells maintained in RPMI 1640 medium supplemented with 10% fetal bovine serum, 200 μM L-glutamine/200 μg/mL penicillin/200 μg/mL streptomycin (Life Technology) and 10 ng/mL IL-3 (R&D system), were infected by EGFR Exon20 virus and subsequently selected by puromycin (Life Technology) selection and IL-3 depletion. Ba/F3 cells expressing Her2 Exon20 YVMA insertions (named Ba/F3-Her2 Exon20 YVMA) can proliferate in the absence of IL-3. The anti-proliferative activity of compounds was determined as follows: BaF3-Her2 Exon20 YVMA cells seeded in 96 well plates (2500 cells/well) were treated with test compound (dissolved in DMSO) at a series of concentrations (4-fold dilution, top concentration: 10,000 nM). The plates were incubated for 72 h in a 37° C. incubator with 5% CO2, and the number of viable cells in each well were measured indirectly by CellTiter 96@ Aqueous One Solution Cell Proliferation Assay (Promega; this assay is a colorimetric method for determining the number of viable cells through measurement of their metabolic activity by detection of enzymatic conversion of tetrazolium salts into blue formazan derivatives). Reagent (20 μL) was added into each well, and the plates were returned to the incubator for 2 h. The absorbance in each well was then measured at 490 nm using an Envision plate reader (Perkin Elmer).

| pIC50 [1] | pIC50 [3] | Structure (SMILES) | EGFR exon 19 deletion and exon 20 T790M mutation IC50 [2] |
| --- | --- | --- | --- |
| < 6.00 | < 6.00 | C=CC(=O)Nc1cc(Nc2ncc(CC)c(-c3cn4c5c(cccc35)CCC4)n2)c(OC)cc1N1CCN(C(C)=O)CC1 [Example 3, N-(2-(4-acetylpiperazin-1-yl)-5-((4-(5,6-dihydro-4H-pyrrolo[3,2,1-ij]quinolin-1-yl)-5-ethylpyrimidin-2-yl)amino)-4-methoxyphenyl)acrylamide] | B (IC50 value for the indicated mutant between about 100 to about 500 nM) |
| > 7.00 | 6.30 to 7.00 | C=CC(=O)Nc1cc(Nc2ncc(Cl)c(-c3cn4c5c(cccc35)CCC4)n2)c(C)cc1N(C)CCN(C)C [Example 13, N-(5-((5-chloro-4-(5,6-dihydro-4H-pyrrolo[3,2,1-ij]quinolin-1-yl)pyrimidin-2-yl)amino)-2-((2-(dimethylamino)ethyl)(methyl)amino)-4-methylphenyl)acrylamide] | A (IC50 value for the indicated mutant below about 100 nM) |
| 6.30 to 7.00 | 6.00 to 6.30 | C=CC(=O)Nc1cc(Nc2ncc(Cl)c(-c3cn4c5c(cccc35)CCC4)n2)c(OC)cc1OCCN1CCCC1 [Example 20] | A (IC50 value for the indicated mutant below about 100 nM) |
| 6.30 to 7.00 | < 6.00 | C=CC(=O)Nc1cc(Nc2ncc(Cl)c(-c3cn4c5c(cccc35)CCC4)n2)c(OC)cc1OCCN1CCN(C)CC1 [Example 21, N-(5-((5-chloro-4-(5,6-dihydro-4H-pyrrolo[3,2,1-ij]quinolin-1-yl)pyrimidin-2-yl)amino)-4-methoxy-2-(2-(4-methylpiperazin-1-yl)ethoxy)phenyl)acrylamide] | A (IC50 value for the indicated mutant below about 100 nM) |
| 6.30 to 7.00 | < 6.00 | C=CC(=O)Nc1cc(Nc2ncc(Cl)c(-c3cn4c5c(cccc35)CCC4)n2)c(OC)cc1OCCN1CCOCC1 [Example 22, N-(5-((5-chloro-4-(5,6-dihydro-4H-pyrrolo[3,2,1-ij]quinolin-1-yl)pyrimidin-2-yl)amino)-4-methoxy-2-(2-morpholinoethoxy)phenyl)acrylamide] | A (IC50 value for the indicated mutant below about 100 nM) |
| > 7.00 | 6.30 to 7.00 | C=CC(=O)Nc1cc(Nc2ncc(Cl)c(-c3cn4c5c(cccc35)CCC4)n2)c(OC)cc1N(C)CCN1CCCC1 [Example 24, N-(5-((5-chloro-4-(5,6-dihydro-4H-pyrrolo[3,2,1-ij]quinolin-1-yl)pyrimidin-2-yl)amino)-4-methoxy-2-(methyl(2-(pyrrolidin-1-yl)ethyl)amino)phenyl)acrylamide] | A (IC50 value for the indicated mutant below about 100 nM) |
| 6.30 to 7.00 | < 6.00 | C=CC(=O)Nc1cc(Nc2ncc(Cl)c(-c3cn4c5c(cccc35)CCC4)n2)c(OC)cc1N(C)CCN1CCN(C)CC1 [Example 25, N-(5-((5-chloro-4-(5,6-dihydro-4H-pyrrolo[3,2,1-ij]quinolin-1-yl)pyrimidin-2-yl)amino)-4-methoxy-2-(methyl(2-(4-methylpiperazin-1-yl)ethyl)amino)phenyl)acrylamide] | A (IC50 value for the indicated mutant below about 100 nM) |
| > 7.00 | 6.00 to 6.30 | C=CC(=O)Nc1cc(Nc2ncc(C3CC3)c(-c3cn4c5c(cccc35)CCC4)n2)c(OC)cc1N(C)CCN(C)C [Example 28, N-(5-((5-cyclopropyl-4-(5,6-dihydro-4H-pyrrolo[3,2,1-ij]quinolin-1-yl)pyrimidin-2-yl)amino)-2-((2-(dimethylamino)ethyl)(methyl)amino)-4-methoxyphenyl)acrylamide] | A (IC50 value for the indicated mutant below about 100 nM) |
| > 7.00 | > 7.00 | C=CC(=O)Nc1cc(Nc2ncc(C(=C)C)c(-c3cn4c5c(cccc35)CCC4)n2)c(OC)cc1N(C)CCN(C)C [Example 29, N-(5-((4-(5,6-dihydro-4H-pyrrolo[3,2,1-ij]quinolin-1-yl)-5-(prop-1-en-2-yl)pyrimidin-2-yl)amino)-2-((2-(dimethylamino)ethyl)(methyl)amino)-4-methoxyphenyl)acrylamide] | A (IC50 value for the indicated mutant below about 100 nM) |
| 6.30 to 7.00 | 6.00 to 6.30 | C=CC(=O)Nc1cc(Nc2ncc(C(C)C)c(-c3cn4c5c(cccc35)CCC4)n2)c(OC)cc1N(C)CCN(C)C [Example 30, N-(5-((4-(5,6-dihydro-4H-pyrrolo[3,2,1-ij]quinolin-1-yl)-5-isopropylpyrimidin-2-yl)amino)-2-((2-(dimethylamino)ethyl)(methyl)amino)-4-methoxyphenyl)acrylamide] | A (IC50 value for the indicated mutant below about 100 nM) |
| – | 6.30 to 7.00 | C=CC(=O)Nc1cc(Nc2nccc(-c3cn4c5c(cccc35)OCC4)n2)c(OC)cc1N(C)CCN(C)C [Example 77, N-(5-((4-(2,3-dihydro-[1,4]oxazino[2,3,4-hi]indol-6-yl)pyrimidin-2-yl)amino)-2-((2-(dimethylamino)ethyl)(methyl)amino)-4-methoxyphenyl)acrylamide] | – |
| > 7.00 | 6.30 to 7.00 | C=CC(=O)Nc1cc(Nc2ncc(Cl)c(-c3cn4c5c(cccc35)OCC4)n2)c(C)cc1OCCN1CCCC1 [Example 78, N-(5-((5-chloro-4-(2,3-dihydro-[1,4]oxazino[2,3,4-hi]indol-6-yl)pyrimidin-2-yl)amino)-4-methyl-2-(2-(pyrrolidin-1-yl)ethoxy)phenyl)acrylamide] | A (IC50 value for the indicated mutant below about 100 nM) |
| > 7.00 | 6.30 to 7.00 | C=CC(=O)Nc1cc(Nc2ncc(Cl)c(-c3cn4c5c(cccc35)OCC4)n2)c(C)cc1N(C)CCN1CCCC1 [Example 79, N-(5-((5-chloro-4-(2,3-dihydro-[1,4]oxazino[2,3,4-hi]indol-6-yl)pyrimidin-2-yl)amino)-4-methyl-2-(methyl(2-(pyrrolidin-1-yl)ethyl)amino)phenyl)acrylamide] | A (IC50 value for the indicated mutant below about 100 nM) |
